Molecules are shown by their SMILES.

In the first experiment the test system is RS411 cells. Nature of the experiment: Cell Viability CTG Assay (CellTiter Glo) in RS411 cells. The note with it: Homo sapiens, RS4-11, 24 h, duration 1 day. Format: cell-based. The procedure: Example 23. Cell Viability CTG Assay
Day 0: Compounds or DMSO 60 nL were stamped to the cell plate as the platemap. RS411 cells were centrifuged at 800 rpm for 5 min, suspended with culture medium, and counted with Countess (Invitrogen). The cell density was adjusted to the recommend information. 30 μL of cell solution (1000 cells/well) was added to the assay plate as the platemap and 30 uL of media was added to column 2 and column 23 as the platemap. The plate was spun down briefly. The final concentration of the compounds started at 10 μM (3 fold dilution and 11 doses) and final DMSO concentration was 0.2%. The plate was spun down briefly and incubated at 37° C., 5% CO2 for 1-4 days.
30 μL CellTiter Glo reagent was added to each well and the plate was centrifuged at 1000 rpm for 30 sec. The plate was shaken for 1 min and centrifuged at 1000 rpm for 30 sec. The plate was incubated at RT for 10 min to stabilize the luminescent signal and the luminescence was read by EnVision.
The letter codes for IC50 indicate the concentration of compound required to affect 50% of cells: A (<0.05 μM), B (0.05-0.1 μM), C (0.1-0.5 μM), D (0.5-1.0 μM), and E (>1.0 μM).
On the technique in general: Cellular ATP, detected with luciferase, serves as a proxy for viable cell number.
A word on the IC50: it is the point on the concentration scale where inhibition reaches its midpoint. Low values mean inhibition by little substance, high ones a need for much substance. For `O=C1CCC(n2c(=O)oc3c(CCCOC4CCN(C(=O)c5ccc(NC(=O)[C@@H]6NC7(CCCCC7)[C@@]7(C(=O)Nc8cc(Cl)ccc87)[C@H]6c6cccc(Cl)c6F)cc5)CC4)cccc32)C(=O)N1` (stereo partly shown) [I-54], the IC50 was in the range of 50 to 100 nM. Still for that read-out and setting: in the case of `O=C1CCN(c2cnc3cc(NCCCCCNC[C@H]4CC[C@H](NC(=O)[C@@H]5NC6(CCCCC6)[C@@]6(C(=O)Nc7cc(Cl)ccc76)[C@H]5c5cccc(Cl)c5F)CC4)ccn23)C(=O)N1` [I-184] it was 50 to 100 nM; in that of `CC1(C)CCC2(CC1)N[C@@H](C(=O)N[C@H]1CC[C@H](CN3CCC(C#Cc4ccn5c(N6CCC(=O)NC6=O)cnc5c4)CC3)CC1)[C@H](c1ccnc(Cl)c1F)[C@]21C(=O)Nc2cc(Cl)ccc21` [I-164], less than 50 nM; in that of `CC1(C)CCC2(CC1)N[C@@H](C(=O)N[C@H]1CC[C@H](CN3CCC(C#Cc4cccn5c(N6CCC(=O)NC6=O)cnc45)CC3)CC1)[C@H](c1ccnc(Cl)c1F)[C@]21C(=O)Nc2cc(Cl)ccc21` [I-155], less than 50 nM. For the molecule `Cn1c(=O)n(C2CCC(=O)NC2=O)c2ccc(C#CC3CCN(C(=O)[C@H]4CC[C@H](NC(=O)[C@@H]5NC6(CCC(C)(C)CC6)[C@@]6(C(=O)Nc7cc(Cl)ccc76)[C@H]5c5cccc(Cl)c5F)CO4)CC3)cc21` (stereo partly shown) [I-83], the IC50 is less than 50 nM. The molecule `COc1cc2c(cc1OC(C)C)[C@@H](c1ccc(Cl)cc1)N(c1ccc(N(C)CC3CCN(CCCCCCc4ccc5c(c4)n(C)c(=O)n5C4CCC(=O)NC4=O)CC3)cc1)C(=O)C2` (stereo partly shown) [I-197] showed an IC50 greater than 1000 nM.

On to `Cn1c(=O)n(C2CCC(=O)NC2=O)c2cccc(CN3CCC(OC4CCN(C[C@H]5CC[C@H](NC(=O)[C@@H]6NC7(CCC(C)(C)CC7)[C@@]7(C(=O)Nc8cc(Cl)ccc87)[C@H]6c6cccc(Cl)c6F)CC5)CC4)CC3)c21` (stereo partly shown) [I-111], for which the IC50 is less than 50 nM. Same read-out and setting: in the case of `Cn1c(=O)n(C2CCC(=O)NC2=O)c2ccc(C#CC3CCN(C[C@H]4CC[C@H](NC(=O)[C@@H]5NC6(CCC(C)(C)CC6)[C@@]6(C(=O)Nc7cc(Cl)ccc76)[C@H]5c5cccc(Cl)c5F)CC4)CC3)cc21` (stereo partly shown) [I-68] it was less than 50 nM; in that of `Cn1c(=O)n(C2CCC(=O)NC2=O)c2ccc(CCCCCN3CCc4cc(NC(=O)[C@@H]5NC6(CCCCC6)[C@@]6(C(=O)Nc7cc(Cl)ccc76)[C@H]5c5cccc(Cl)c5F)ccc4C3)cc21` (stereo partly shown) [I-189], less than 50 nM; in that of `CC(C)(C)C[C@@H]1N[C@@H](C(=O)N[C@H]2CC[C@H](CN3CCC(C#Cc4ccn5c(N6CCC(=O)NC6=O)cnc5c4)CC3)CC2)[C@H](c2cccc(Cl)c2F)[C@@]1(C#N)c1ccc(Cl)cc1F` [I-135], greater than 1000 nM. `Cn1c(=O)n(C2CCC(=O)NC2=O)c2ccc(C#CCCN3CCN(C(=O)[C@H]4CC[C@H](NC(=O)[C@@H]5NC6(CCCCC6)[C@@]6(C(=O)Nc7cc(Cl)ccc76)[C@H]5c5cccc(Cl)c5F)CC4)CC3)cc21` (stereo partly shown) [I-136]: the IC50 was less than 50 nM. Regarding `COc1cc2c(cc1OC(C)C)C(c1ccc(Cl)cc1)N(c1ccc(N(C)C[C@H]3CC[C@H](N(C)CCOCCOCC(=O)N[C@H](C(=O)N4C[C@H](O)C[C@H]4C(=O)NCc4ccc(-c5scnc5C)cc4)C(C)(C)C)CC3)cc1)C(=O)C2` (stereo partly shown) [I-175], the IC50 was greater than 1000 nM. The same measure, in the same setting: under `Cn1c(=O)n(C2CCC(=O)NC2=O)c2ccc(C3CCN(C(=O)[C@H]4CC[C@H](NC(=O)[C@@H]5NC6(CCC(C)(C)CC6)[C@@]6(C(=O)Nc7cc(Cl)ccc76)[C@H]5c5ccnc(Cl)c5F)CC4)CC3)cc21` (stereo partly shown) [I-177] stands less than 50 nM; under `Cn1c(=O)n(C2CCC(=O)NC2=O)c2ccc(C#CCCCCCN3CCC(NC(=O)[C@@H]4NC5(CCCCC5)[C@@]5(C(=O)Nc6cc(Cl)ccc65)[C@H]4c4cccc(Cl)c4F)CC3)cc21` (stereo partly shown) [I-224], less than 50 nM; under `COc1cc2c(cc1OC(C)C)[C@H](c1ccc(Cl)cc1)N(c1ccc(N(C)CC3CCN(C(=O)Cc4ccc5c(c4)n(C)c(=O)n5C4CCC(=O)NC4=O)CC3)cc1)C(=O)C2` (stereo partly shown) [I-181], greater than 1000 nM. As for `Cn1c(=O)n(C2CCC(=O)NC2=O)c2ccc(C#CCN3CCN(Cc4ccc(NC(=O)[C@@H]5NC6(CCCCC6)[C@@]6(C(=O)Nc7cc(Cl)ccc76)[C@H]5c5cccc(Cl)c5F)cc4)CC3)cc21` (stereo partly shown) [I-110], the IC50 was less than 50 nM. Molecule `CN(C(=O)[C@@H]1NC2(CCCCC2)[C@@]2(C(=O)Nc3cc(Cl)ccc32)[C@H]1c1cccc(Cl)c1F)c1ccc(C(=O)NCCCCCc2ccc3c(c2)n(C)c(=O)n3C2CCC(=O)NC2=O)cc1` (stereo partly shown) [I-96] gave an IC50 greater than 1000 nM.

The molecule `CN1[C@@H](C(=O)Nc2ccc(CN3CCC(CCc4ccc5c(c4)n(C)c(=O)n5C4CCC(=O)NC4=O)CC3)cc2)[C@H](c2cccc(Cl)c2F)[C@]2(C(=O)Nc3cc(Cl)ccc32)C12CCCCC2` (stereo partly shown) [I-77] had an IC50 of less than 50 nM. For the molecule `Cn1c(=O)n(C2CCC(=O)NC2=O)c2ccc(C#CCCCNC(=O)[C@H]3CC[C@H](N(C)C(=O)[C@@H]4NC5(CCCCC5)[C@@]5(C(=O)Nc6cc(Cl)ccc65)[C@H]4c4cccc(Cl)c4F)CC3)cc21` (stereo partly shown) [I-120], the IC50 is greater than 1000 nM. On the same count and under the same terms, under `Cn1c(=O)n(C2CCC(=O)NC2=O)c2cccc(C#CCOC3CCN(C(=O)c4ccc(NC(=O)[C@@H]5NC6(CCCCC6)[C@@]6(C(=O)Nc7cc(Cl)ccc76)[C@H]5c5cccc(Cl)c5F)cc4)CC3)c21` (stereo partly drawn) [I-43, (3′R,4'S,5′R)-6″-chloro-4′-(3-chloro-2-fluorophenyl)-N-(4-(4-((3-(1-(2,6-dioxopiperidin-3-yl)-3-methyl-2-oxo-2,3-dihydro-1H-benzo[d]imidazol-4-yl)prop-2-yn-1-yl)oxy)piperidine-1-carbonyl)phenyl)-2″-oxodispiro[cyclohexane-1,2′-pyrrolidine-3′,3″-indoline]-5′-carboxamide] stands less than 50 nM. As for `CCN1[C@@H](C(=O)NC23CCC(CN(C)CCCCCc4ccc5c(c4)n(C)c(=O)n5C4CCC(=O)NC4=O)(CC2)CC3)[C@H](c2cccc(Cl)c2F)[C@]2(C(=O)Nc3cc(Cl)ccc32)C12CCCCC2` (stereo partly drawn) [I-131, (3′R,4'S,5′R)-6″-chloro-4′-(3-chloro-2-fluorophenyl)-N-(4-(((5-(1-(2,6-dioxopiperidin-3-yl)-3-methyl-2-oxo-2,3-dihydro-1H-benzo[d]imidazol-5-yl)pentyl)(methyl)amino)methyl)bicyclo[2.2.2]octan-1-yl)-1′-ethyl-2″-oxodispiro[cyclohexane-1,2′-pyrrolidine-3′,3″-indoline]-5′-carboxamide], the IC50 was 50 to 100 nM.

Turning to `CNC(=O)c1ccc(N2C(=O)[C@H]3[C@H](c4cccc(Cl)c4F)[C@@](C#N)(c4ccc(Cl)cc4F)[C@H](CC(C)(C)C)N3C2CCCCCCCC#Cc2ccc3c(c2)n(C)c(=O)n3C2CCC(=O)NC2=O)c(OC)c1` (stereo partly drawn) [I-213, 4-[(5S,6R,7S,7aR)-7-(3-chloro-2-fluoro-phenyl)-6-(4-chloro-2-fluoro-phenyl)-6-cyano-5-(2,2-dimethylpropyl)-3-[9-[1-(2,6-dioxo-3-piperidyl)-3-methyl-2-oxo-benzimidazol-5-yl]non-8-ynyl]-1-oxo-3,5,7,7a-tetrahydropyrrolo[1,2-c]imidazol-2-yl]-3-methoxy-N-methyl-benzamide], the IC50 was greater than 1000 nM. The molecule `C#CCCCCCCCN1C(=O)[C@@]2(c3ccc(Cl)cc31)[C@@H](c1cccc(Cl)c1F)[C@H](C(=O)N[C@H]1C[C@@](C)(O)C1)N(C)C21CCCCC1` [I-128, (3′R,4'S,5′R)-6″-chloro-4′-(3-chloro-2-fluorophenyl)-N-((1s,3S)-3-hydroxy-3-methylcyclobutyl)-1′-methyl-1″-(non-8-yn-1-yl)-2″-oxodispiro[cyclohexane-1,2′-pyrrolidine-3′,3″-indoline]-5′-carboxamide] showed an IC50 greater than 1000 nM. Molecule `Cn1c(=O)n(C2CCC(=O)NC2=O)c2ccc(C#CC3CCN(Cc4ccc(NC(=O)[C@@H]5NC6(CCCCC6)[C@@]6(C(=O)Nc7cc(Cl)ccc76)[C@H]5c5cccc(Cl)c5F)cc4)CC3)cc21` (stereo partly shown) [I-79] registered an IC50 of less than 50 nM.

Still in this experiment, the particulars now being: Homo sapiens, RS4-11, 96 h, duration 4 days.
Take `CC(C)[C@@H](CS(=O)(=O)C(C)C)N1C(=O)[C@@](C)(CC(=O)Nc2ccc(C(=O)NCCCOCCCN)cc2)C[C@H](c2cccc(Cl)c2)[C@H]1c1ccc(Cl)cc1` [I-5, N-[3-(3-aminopropoxy)propyl]-4-[[2-[(3R,5R,6S)-5-(3-chlorophenyl)-6-(4-chlorophenyl)-1-[(1S)-1-(isopropylsulfonylmethyl)-2-methyl-propyl]-3-methyl-2-oxo-3-piperidyl]acetyl]amino]benzamide]: the IC50 is greater than 1000 nM.

`CC(C)[C@@H](CS(=O)(=O)C(C)C)N1C(=O)[C@@](C)(CC(=O)Nc2ccc(C(=O)NCCCCCCCNC(=O)c3ccc(NC(=O)C[C@@]4(C)C[C@H](c5cccc(Cl)c5)[C@@H](c5ccc(Cl)cc5)N([C@H](CS(=O)(=O)C(C)C)C(C)C)C4=O)cc3)cc2)C[C@H](c2cccc(Cl)c2)[C@H]1c1ccc(Cl)cc1` [I-8, 4-[2-[(3R,5R,6S)-5-(3-chlorophenyl)-6-(4-chlorophenyl)-3-methyl-1-[(2S)-3-methyl-1-(propane-2-sulfonyl)butan-2-yl]-2-oxopiperidin-3-yl]acetamido]-N-[7-[(4-[2-[(3R,5R,6S)-5-(3-chlorophenyl)-6-(4-chlorophenyl)-3-methyl-1-[(2S)-3-methyl-1-(propane-2-sulfonyl)butan-2-yl]-2-oxopiperidin-3-yl]acetamido]phenyl)formamido]heptyl]benzamide] had an IC50 greater than 1000 nM. On the same count and under the same terms, in the case of `COc1cc(C(=O)NCCCC#Cc2ccc3c(c2)n(C)c(=O)n3C2CCC(=O)NC2=O)ccc1NC(=O)[C@@H]1N[C@@H](CC(C)(C)C)[C@](C#N)(c2ccc(Cl)cc2F)[C@H]1c1cccc(Cl)c1F` (stereo partly shown) [I-17] it was less than 50 nM; in that of `CC(C)[C@@H](CS(=O)(=O)C(C)C)N1C(=O)[C@@](C)(CC(=O)NCCCCCCCCc2ccc3c(c2)n(C)c(=O)n3C2CCC(=O)NC2=O)C[C@H](c2cccc(Cl)c2)[C@H]1c1ccc(Cl)cc1` (stereo partly shown) [I-21], 50 to 100 nM.
